PubChem BioAssay (NCI)
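Values below derive from 48-hour exposures of cells grown in 96-well plates, with endpoints linearly interpolated between the two concentrations bracketing the appropriate inhibition level. TGI: concentration producing complete growth inhibition.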

Experiments:
Assay in all cases: NCI anticancer screen, dose series, 48 h
[1] = test system: CAKI-1 renal
[2] = test system: HT29 colon
[3] = test system: K-562 leukemia
[4] = test system: LOX IMVI melanoma
[5] = test system: MCF7 breast
[6] = test system: PC-3 prostate
[7] = test system: RXF 393 renal
[8] = test system: SK-MEL-28 melanoma
[9] = test system: SN12C renal
[10] = test system: SW-620 colon
[11] = test system: U251 CNS

Compound | TGI [1] [µM] | TGI [2] [µM] | TGI [3] [µM] | TGI [4] [µM] | TGI [5] [µM] | TGI [6] [µM] | TGI [7] [µM] | TGI [8] [µM] | TGI [9] [µM] | TGI [10] [µM] | TGI [11] [µM]
C[N+](CCCl)(CCCl)Cc1cccc2cccc([N+](=O)[O-])c12 | > 100 | > 100 | > 100 | > 100 | > 100 | > 100 | > 100 | > 100 | > 100 | > 100 | > 100
CC(C)C(=O)[C@@]1(C)SC[C@H]2CCN=C21 | > 100 | > 100 | > 100 | > 100 | > 100 |  | > 100 | > 100 | > 100 | > 100 | 
O=c1[nH]c2c(nc1NC13CC4CC(CC(C4)C1)C3)c(=O)oc1ccccc12 | 46 | > 100 | > 100 | > 100 |  |  | > 100 | > 100 | > 100 | > 100 | 33.1
CNC(C#N)c1ccc(OC)cc1 (configuration not stated) | > 100 | > 100 | > 100 | > 100 | > 100 | > 100 | > 100 | > 100 | > 100 | > 100 | > 100
CCOc1cc2c(OCc3ccccc3)cc3c4cc(OC)c(OC)cc4c[n+](C)c3c2cc1OC | > 69.4 | 11.1 | > 42.6 |  | 4.44 | 4.84 | 9.18 |  | > 100 |  | 2.66
COc1ccc(N2C(=O)C(=O)N(c3ccccc3[N+](=O)[O-])C2=S)cc1 | > 100 | > 100 | > 100 | 32.4 |  | > 100 | 52.8 | > 100 | > 100 | > 100 | > 100
COC(=O)CCC1=CCC2(SC)C(=O)Nc3cccc1c32 (configuration not stated) | > 100 | > 100 |  | > 100 | > 100 | > 100 |  | > 100 | > 100 | > 100 | > 100
COc1cc(C2SCC(=O)N2c2ccccn2)cc(OC)c1OC (configuration not stated) | > 100 | > 100 | > 100 | > 100 | > 100 | > 100 |  | > 100 | > 100 | > 100 | > 100
COC(=O)c1cc2c3c(ccc2[nH]1)N(C(=O)c1cc2cc(OC)c(OC)c(OC)c2[nH]1)CC3CCl (configuration not stated) | > 100 | > 75.8 |  | > 100 | > 100 | > 100 | > 100 | > 100 |  | > 100 | > 100
CCCCN(CCCC)CC(O)c1cc(-c2ccc(C(F)(F)F)cc2)nc(-c2ccc(C(F)(F)F)cc2)c1 (configuration not stated) | > 100 | > 100 | > 100 | > 100 |  | > 100 |  | > 100 | > 100 | > 100 | > 100
CCCCC1=NNC(=O)C1 | > 100 | > 100 |  |  | > 100 | > 100 | > 100 | > 100 | > 100 | > 100 | > 100
CC(C)(C)NC(NC(C)(C)C)=C(/C=C(/Cl)[N+](=O)[O-])[N+](=O)[O-] | > 100 | > 100 | > 100 | > 100 | > 100 | > 100 | > 100 | > 100 | > 100 |  | > 100
CC(C)(Cl)C(Br)CCC(C)(Cl)C(Br)CBr (configuration not stated) |  | 46.8 | > 100 |  | 41.7 | 71 | 65.9 | 79.7 | 54.2 | 95.5 | 69.5
CNc1ccc(C(=O)CC(O)CCC(C)C2OC(=O)CC(O)CC(=O)CC(O)CC(O)CC(O)CC(O)CC3(O)CC(O)C(C(=O)NCCN(C)C)C(CC(OC4OC(C)C(O)C(NC(=O)CN5CCN(C)CC5)C4O)/C=C/C=C/C=C/C=C\C=C/C=C/C=C/C2C)O3)cc1 (configuration not stated) | > 100 | 9.92 | > 100 |  |  | > 100 | > 100 | 45.7 | > 100 | > 100 | > 100
CC(C)(C)[Si](OC1CC(n2cnc3c(N)ncnc32)OC1CO)(c1ccccc1)c1ccccc1 (configuration not stated) |  | 30.2 | > 100 | 31.7 |  |  | 29.5 | 41.1 | 43.3 | 34.1 | 34.1
CCN(CC)CC1CCCCCCCCCCC1=O (configuration not stated) |  | > 100 | > 100 | > 100 |  |  |  | > 100 | > 100 | > 100 | > 100
Nc1ccc2c(c1)N(C(=O)c1cc3cc(NC(=O)c4cc5ccccc5o4)ccc3[nH]1)CC2CCl (configuration not stated) | 12.9 | > 32.7 |  | > 100 | 2.38 | 12.2 | 0.0496 | 0.502 | > 46.4 | 12.6 | 12
CC(C)(C)OC(=O)N1CCc2[nH][nH]c(=O)c2C1 | > 100 | > 100 | > 100 |  | > 100 | > 100 | > 100 | > 100 | > 100 | > 100 | > 100
CCCCc1c(N(C)C)c(OC(C)=O)c(-c2cn(C)c3ccccc23)oc1=O | > 100 | 47.5 |  |  | 39.6 | 50.9 | > 100 | 57.9 | 59.8 | > 100 | 64
OCCCCCCCCCCCOc1ccc(C2OCC3(CO2)COC(c2ccc(OCCCCCCCCCCCO)cc2)OC3)cc1 (configuration not stated) | > 50 | > 50 | > 50 | > 50 | > 50 | > 50 |  | > 50 | > 50 | > 50 | > 50
COc1cc2cc3c4c(cc(OC)c(OC)c4c2cc1OC)CCN3C(=O)OCCN1CCNCC1 | 28.5 | 25.8 | 31.2 | 26.6 |  |  | 27.9 | 36.6 | 29.9 | 28.1 | 28.9
O=C1C(Cl)N(c2ccc(Cl)cc2)C1c1c[nH]c2ccccc12 (configuration not stated) |  | 37.5 | 73.3 |  |  |  | 42.1 | 96.5 | 36 | 68.8 | 25.7
